Measurements published in patent US20250120967A1, “TYROSINE KINASES INHIBITORS AND USES THEREOF” (GREAT NOVEL THERAPEUTICS BIOTECH & MEDICALS CORPORATION, priority 2023, published 2025).

Tests used:
[1] = tested on: MDA-MB-231 cells; assay: In vitro cytotoxicity assay (MTT, 72 h); assay type: cell-based; details: Homo sapiens, growth inhibition
Experimental: (§1) Six different cell lines were used, including human breast cancer cell lines MDA-MB-231 (6×10^3) and MDA-MB-453 (2.4×10^4), human colorectal cell line SW48 (2.4×10^4), human breast epithelial cell line M10 (6×10^3), human cancer cell line A549 (1.4×10^3), and murine colorectal carcinoma tumors CT26 (6×10^3), which were seeded in a 96-well plate. […] After 72 h, MTT assay (Cayman™) was used to determine the cellular viability.

[2] = tested on: MDA-MB-453 cells; assay: In vitro cytotoxicity assay (MTT, 72 h); assay type: cell-based; details: Homo sapiens, growth inhibition
Experimental: as §1

[3] = tested on: M10 cells; assay: In vitro cytotoxicity assay (MTT, 72 h); assay type: cell-based; details: growth inhibition, human normal cell line
Experimental: as §1

[4] = tested on: A549 cells; assay: In vitro cytotoxicity assay (MTT, 72 h); assay type: cell-based; details: Homo sapiens, growth inhibition
Experimental: as §1

[5] = tested on: SW48 cells; assay: In vitro cytotoxicity assay (MTT, 72 h); assay type: cell-based; details: Homo sapiens, growth inhibition
Experimental: as §1

[6] = tested on: CT-26 cells; assay: In vitro cytotoxicity assay (MTT, 72 h); assay type: cell-based, murine; details: Mus musculus, CT26, growth inhibition
Experimental: as §1

[7] = tested on: CT26 tumor; assay: Experimental tumor model and therapies, CT26 tumor-bearing mice;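 further: male Balb/c mice bearing CT26 grafts in the back, treated once tumors reached roughly 250–300 mm^3, tumor volume measured twice weekly, response graded by fold growth after treatment end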
Experimental: LLC1 was grown at 37° C. under humidified air supplemented with CO2 in DMEM (#10-013-CM, Corning®) containing 10% heat inactivated fetal calf serum, and 1× concentration of MycoZap Antibiotics. CT26 was grown at 37° C. under humidified air supplemented with CO2 in RPMI1640 (cat. #10-040-CM, Corning®) containing 10% heat inactivated fetal calf serum, and 1× concentration of MycoZap Antibiotics. After the cancer cell culture was completed, it was implanted (1×10^6 cells/mouse) into the back of the mouse for growth.
Six- to eight-week-old male Balb/c mice (National Laboratory Animal Center, Taiwan) were used for all animal experiments. […] Tumors were allowed to grow for 10-12 days (tumor size about 250-300 mm^3) before randomization and treatment. The tumor volume of the mice was measured once every three or four days (twice/week). Animals were euthanized when tumors reached more than 3000 mm^3 in diameter. […] Relapse/recurrence was defined as when tumor growth reappeared and tumor size reached at least 5 fold in mice with CR or PR response after secondary tumor assessment. In this study, we defined Complete Response (CR, <0.5 time tumor growth in the tumor bearing mice at tumor assessment after the end of treatment); Partial Response (PR, tumor size ≥0.5 time tumor growth, but <1 time tumor growth in the tumor bearing mice at tumor assessment after the end of treatment); Stable Disease (SD, ≥1 time tumor growth, but <5 times tumor growth in the tumor bearing mice at tumor assessment after the end of treatment); and Progressive Disease (PD, ≥5 times tumor growth in the tumor bearing mice at tumor assessment after the end of treatment) for the evaluation of treatment efficacy.

[8] = FIG. 3E, oral 12 days, Cabozantinib 30 mg/kg, Cbo-20 30 mg/kg, GNTbm-38-K30 40 mg/kg
[9] = FIG. 7E, Cbo-23-K30 30 mg/kg, Zanzalintinib hemifumarate 30 mg/kg, GNTbm-38-2HCL 40 mg/kg
[10] = FIG. 5E, Cbo-23 30 mg/kg, Regorafenib 30 mg/kg, GNTbm-38-K30 20 mg/kg in combination, 5 mg/kg alone

`COc1cc2nccc(Oc3ccc(C(=O)NC4(C(=O)Nc5ccc(F)cc5)CC4)cc3F)c2cc1OC` [Cbo-03, 4-((6,7-diMethoxyquinolin-4-yl)oxy)-3-fluoro-N-(1-((4-fluorophenyl)carbamoyl)cyclopropyl)benzamide] gave an IC50 [1] of 12.7 ± 1.37 µM, an IC50 [2] of 17.9 ± 1.34 µM and an IC50 [3] of 16.2 ± 1.44 µM. The IC50 [4] was 12.8 ± 6.7 µM and the IC50 [5] was greater than 25 µM.
`COc1cc2nccc(Oc3ccc(NC(=O)C4(NC(=O)c5ccc(F)cc5)CC4)cc3F)c2cc1Oc1ccc(N)cc1` [Cbo-05] was tested, and the IC50 [6] was 8.9 ± 0.61 µM, the IC50 [1] was 7.84 ± 1.34 µM and the IC50 [2] was 8.92 ± 1.49 µM. It also gave an IC50 [3] of 1.17 ± 0.053 µM, an IC50 [4] of 2.51 ± 0.21 µM and an IC50 [5] of 1.86 ± 0.059 µM.
`COc1cc2nccc(Oc3ccc(NC(=O)C4(NC(=O)c5ccc(F)cc5)CC4)cc3F)c2cc1Oc1ccc(N)cn1` [Cbo-06] showed an IC50 [1] greater than 25 µM, an IC50 [2] greater than 25 µM and an IC50 [3] of 5.59 ± 0.46 µM. For the same molecule, the IC50 [4] was 6.89 ± 1.61 µM and the IC50 [5] was 8.76 ± 0.52 µM.
In the case of `COc1cc2nccc(Oc3ccc(NC(=O)C4(NC(=O)c5ccc(F)cc5)CC4)cc3F)c2cc1O` [Cbo-07, 4-Fluoro-N-(1-((3-fluoro-4-((6-hydroxy-7-methoxyquinolin-4-yl)oxy)phenyl)carbamoyl)cyclopropyl)benzamide], the IC50 [1] is reported as 5.07 ± 1.04 µM, the IC50 [2] is reported as greater than 25 µM and the IC50 [3] is reported as 4.44 ± 1.51 µM. It also gave an IC50 [4] of 1.49 ± 0.21 µM and an IC50 [5] of 0.74 ± 0.13 µM.
Molecule `COc1cc2nccc(Oc3ccc(NC(=O)C4(NC(=O)c5ccc(F)cc5)CC4)cc3F)c2cc1Oc1cccc(N)c1` [Cbo-08] has an IC50 [1] greater than 25 µM, an IC50 [2] greater than 25 µM and an IC50 [3] of 1.83 ± 0.72 µM. It also gave an IC50 [4] of 2.6 ± 1.82 µM and an IC50 [5] of 3.51 ± 0.48 µM.
`COc1cc2nccc(Oc3ccc(NC(=O)C4(NC(=O)c5ccc(F)cc5)CC4)cc3F)c2cc1Oc1ccc(N)cc1C` [Cbo-09] was tested, and the IC50 [1] was 12.6 ± 0.98 µM, the IC50 [2] was 9.28 ± 0.66 µM and the IC50 [3] was 0.99 ± 0.044 µM. It also gave an IC50 [4] of 6.89 ± 1.61 µM and an IC50 [5] of 1.02 ± 0.008 µM.
In the case of `COc1cc2nccc(Oc3ccc(N(C(=O)C4(C(N)=O)CC4)c4ccc(F)cc4)cc3F)c2cc1OC` [Cbo-20, N-(4-((6,7-dimethoxyquinolin-4-yl)oxy)-3-fluorophenyl)-N-(4-fluorophenyl)cyclo-propane-1,1-dicarboxamide], the IC50 [6] is reported as 8.89 ± 0.24 µM, the “CR (number of mice)” value [7, 8] is reported as 2 and the ORR [7, 8] is reported as 50%. The “PD (number of mice)” value [7, 8] was 2, the “PR (number of mice)” value [7, 8] was 2 and the “Survival Rate” value ([7]; FIG. 3F, Cabozantinib 30 mg/kg, Cbo-20 30 mg/kg, GNTbm-38-K30 40 mg/kg) was 25%. It also gave a recurrence rate ([7]; FIG. 3G, day 60, Cabozantinib 30 mg/kg, Cbo-20 30 mg/kg, GNTbm-38-K30 40 mg/kg) of 75%, an IC50 [1] of 4.81 ± 1.16 µM and an IC50 [2] of 14.1 ± 2.06 µM. For the same molecule, the IC50 [3] was 5.47 ± 1.73 µM, the IC50 [4] was 3.34 ± 0.69 µM and the IC50 [5] was 2.51 ± 0.18 µM.
For `CC(CN)NC(=O)c1cc(Oc2ccc(N(C(=O)C3(C(N)=O)CC3)c3ccc(F)cc3)cc2F)ccn1` (centres unmarked) [Cbo-22, N-(4-((2-((1-aminopropan-2-yl)carbamoyl)pyridin-4-yl)oxy)-3-fluorophenyl)-N-(4-fluorophenyl)cyclopropane-1,1-dicarboxamide], the IC50 [6] was greater than 25 µM, the ORR ([7]; FIG. 4D, Cabozantinib 30 mg/kg, Cbo-22 30 mg/kg, GNTbm-38-K30 40 mg/kg) was 0% and the “Survival Rate” value ([7]; FIG. 4E, Cabozantinib 30 mg/kg, Cbo-22 30 mg/kg, GNTbm-38-K30 40 mg/kg) was 0%. It also gave an IC50 [1] of 16.1 ± 0.19 µM, an IC50 [2] greater than 25 µM and an IC50 [3] of 15.1 ± 0.44 µM. The IC50 [4] was 11.2 ± 1.18 µM and the IC50 [5] was 21.9 ± 0.96 µM.
Work on `COc1cc2nccc(Oc3ccc(NC(=O)C4(C(=O)Nc5ccc(F)cc5)CC4)cc3F)c2cc1C(=O)NC(C)CN` (centres unmarked) [Cbo-24, O-phenyl-N-(4-fluorophenyl)cyclopropane-1,1-dicarboxamide] yielded an IC50 [6] greater than 25 µM, an IC50 [1] of 15.7 ± 0.33 µM and an IC50 [2] of 17 ± 0.96 µM. It also gave an IC50 [3] greater than 25 µM, an IC50 [4] of 16.2 ± 0.95 µM and an IC50 [5] of 8.75 ± 0.55 µM.
With `Nc1ccccc1NC(=O)c1ccc(NC(=O)C/C=C/c2cccnc2)cc1` [GNTbm-38-2HCL, (E)-N-(2-aminophenyl)-4-(4-(pyridin-3-yl)but-3-enamido)benzamide] the “CR (number of mice)” value [7, 9] was 0, the ORR [7, 9] was 0% and the “PD (number of mice)” value [7, 9] was 9. The “PR (number of mice)” value [7, 9] was 0.
For `CNC(=O)c1cc(Oc2ccc(NC(=O)Nc3ccc(Cl)c(C(F)(F)F)c3)c(F)c2)ccn1` [Regorafenib], the “CR (number of mice)” value [7, 10] was 0, the ORR [7, 10] was 0% and the “PD (number of mice)” value [7, 10] was 7. The “PR (number of mice)” value [7, 10] was 0 and the “Survival Rate” value ([7]; FIG. 5F, Cbo-23 30 mg/kg, Regorafenib 30 mg/kg, GNTbm-38-K30 20 mg/kg in combination, 5 mg/kg alone) was 0%.
For Zanzalintinib hemifumarate, the “CR (number of mice)” value [7, 9] was 0, the ORR [7, 9] was 0% and the “PD (number of mice)” value [7, 9] was 9. For the same molecule, the “PR (number of mice)” value [7, 9] was 0 and the “tumor inhibition rate at day 28” value ([7]; FIGS. 7B, 7C, Cbo-23-K30 30 mg/kg, Zanzalintinib hemifumarate 30 mg/kg, GNTbm-38-2HCL 40 mg/kg) was 2%.
